Test results published in ChEMBL document CHEMBL2331290, “4-Hydroxypyridazin-3(2H)-one derivatives as novel D-amino acid oxidase inhibitors” (J Med Chem, 2013).
pIC50: −log10 of the molar value.

Tests used:
[1] = Effective permeability of the compound at pH 6.5 after 2 hrs by PAMPA; format: ADME; conditions: read-out: Peff
D-amino-acid oxidase [2] = molecular target: T1, D-amino-acid oxidase (Homo sapiens, UniProt P14920)
Description: Inhibition of DAAO (unknown origin) by cell based assay

D-amino-acid oxidase [3] = molecular target: T1, D-amino-acid oxidase; test: Inhibition of human recombinant DAAO after 30 mins by plate reader analysis
HEK293 = test: Cytotoxicity against HEK293 cells overexpressing human full length DAAO by Alamar Blue assay; format: cell-based
D-amino-acid oxidase [4] = molecular target: D-amino-acid oxidase (Rattus norvegicus, UniProt O35078)
D-amino-acid oxidase (Rattus norvegicus, UniProt O35078), sequence (O35078 whole entry): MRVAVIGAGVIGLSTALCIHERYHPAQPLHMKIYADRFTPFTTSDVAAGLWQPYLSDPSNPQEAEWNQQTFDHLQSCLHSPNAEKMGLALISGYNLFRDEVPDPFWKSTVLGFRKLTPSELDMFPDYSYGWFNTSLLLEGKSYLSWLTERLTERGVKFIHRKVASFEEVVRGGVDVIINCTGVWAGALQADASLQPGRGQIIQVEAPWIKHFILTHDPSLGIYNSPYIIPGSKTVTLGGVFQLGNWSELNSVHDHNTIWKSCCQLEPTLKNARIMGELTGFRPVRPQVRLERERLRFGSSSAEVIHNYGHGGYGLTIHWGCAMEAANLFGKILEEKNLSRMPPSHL
Description: Inhibition of rat full length DAAO overexpressed in HEK293 cells after 30 mins by plate reader analysis

D-amino-acid oxidase [5] = molecular target: D-amino-acid oxidase (Mus musculus, UniProt P18894)
D-amino-acid oxidase (Mus musculus, UniProt P18894), sequence (P18894 whole entry): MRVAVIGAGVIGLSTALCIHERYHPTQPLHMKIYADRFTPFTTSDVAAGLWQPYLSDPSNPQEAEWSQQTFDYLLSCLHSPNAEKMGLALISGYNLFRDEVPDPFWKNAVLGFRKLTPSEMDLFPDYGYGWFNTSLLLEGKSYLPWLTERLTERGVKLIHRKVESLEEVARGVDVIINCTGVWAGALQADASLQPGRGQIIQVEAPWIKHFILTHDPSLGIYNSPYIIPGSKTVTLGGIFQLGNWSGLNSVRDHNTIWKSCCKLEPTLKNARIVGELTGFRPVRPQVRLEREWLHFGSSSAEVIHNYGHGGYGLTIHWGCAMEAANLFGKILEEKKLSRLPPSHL
Description: Inhibition of mouse full length DAAO overexpressed in HEK293 cells after 30 mins by plate reader analysis

D-amino-acid oxidase [6] = molecular target: T1, D-amino-acid oxidase; remark: listed apart in the source
Description: Inhibition of human full length DAAO overexpressed in HEK293 cells after 30 mins by plate reader analysis

[7] = Plasma concentration in ddY mouse at 30 mg/kg, po after 30 mins by LC-MS/MS analysis; format: ADME, organism-based; design: dose 30 mg/kg, route oral
[8] = Drug uptake in ddY mouse brain at 30 mg/kg, po after 30 mins by LC-MS/MS analysis; format: ADME, organism-based; design: dose 30 mg/kg, route oral; conditions: read-out: Drug uptake

T1 sequence (P14920 whole entry): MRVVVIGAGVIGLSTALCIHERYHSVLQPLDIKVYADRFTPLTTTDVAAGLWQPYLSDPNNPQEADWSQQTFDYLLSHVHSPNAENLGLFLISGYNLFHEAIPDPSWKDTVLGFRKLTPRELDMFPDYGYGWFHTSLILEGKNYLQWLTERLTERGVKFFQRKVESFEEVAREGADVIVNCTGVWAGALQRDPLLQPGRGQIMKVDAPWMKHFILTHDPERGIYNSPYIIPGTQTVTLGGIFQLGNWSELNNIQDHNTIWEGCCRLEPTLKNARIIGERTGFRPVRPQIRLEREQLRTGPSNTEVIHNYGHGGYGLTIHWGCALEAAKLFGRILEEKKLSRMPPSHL

pIC50 (D-amino-acid oxidase [4])	pIC50 (D-amino-acid oxidase [5])	Compound	also measured
		O=c1[nH]c2ccccc2cc1O	Papp at 2 h [1]: 18.2 ×10⁻⁶ cm/s
		O=c1[nH]cc(Cl)cc1O	pIC50 (D-amino-acid oxidase [2]): 6.03; Papp at 2 h [1]: 6.4 ×10⁻⁶ cm/s; pIC50 (D-amino-acid oxidase [3]): 7.33
		Cc1c[nH]c(=O)c(O)c1	Activity (HEK293): Toxic; pIC50 (D-amino-acid oxidase [3]): 6.85
		O=c1[nH]cc(CCc2ccccc2)cc1O	Activity (HEK293): Toxic; Papp at 2 h [1]: > 30 ×10⁻⁶ cm/s
8.34	8.48	O=c1[nH]nc(CCc2ccccc2)cc1O	
8.51	8.55	CC(c1ccccc1)c1cc(O)c(=O)[nH]n1 (stereo not drawn)	
5.91	6.37	O=c1[nH]nc(CCCc2ccccc2)cc1O	
8.09	8.49	O=c1[nH]nc(CCC2CCCCC2)cc1O	
8.62	8.72	O=c1[nH]nc(CCc2ccc(Cl)cc2)cc1O	
6.33	6.62	O=c1[nH]nc(/C=C/c2ccc(Cl)cc2)cc1O	pIC50 (D-amino-acid oxidase [6]): 6.24; pIC50 (D-amino-acid oxidase [3]): 6.92
< 6.00	< 6.00	O=c1[nH]nc(C2CCCCC2)cc1O	pIC50 (D-amino-acid oxidase [6]): < 6.00; pIC50 (D-amino-acid oxidase [3]): 6.52
< 6.00	< 6.00	CC(C)(C)CCc1cc(O)c(=O)[nH]n1	pIC50 (D-amino-acid oxidase [6]): < 6.00; pIC50 (D-amino-acid oxidase [3]): 6.17
8.19	8.34	O=c1cc(COc2ccccc2)[nH]nc1O	
8.31	8.44	O=c1[nH]nc(CCc2ccccc2F)cc1O	
7.39	8.15	O=c1[nH]nc(CCc2ccccc2C(F)(F)F)cc1O	
8.59	8.72	O=c1[nH]nc(CCc2cccc(F)c2)cc1O	
8.25	8.36	COc1cccc(CCc2cc(O)c(=O)[nH]n2)c1	
8.66	8.60	O=c1[nH]nc(CCc2ccc(F)cc2)cc1O	
8.42	8.44	COc1ccc(CCc2cc(O)c(=O)[nH]n2)cc1	
7.80	8.36	O=c1[nH]nc(CCc2cc(F)cc(F)c2)cc1O	concentration at 0.5 h [7]: 6540 ng/mL; concentration at 0.5 h [8]: 460 ng/mL
5.72	6.31	O=c1[nH]nc(CCc2cc(C(F)(F)F)cc(C(F)(F)F)c2)cc1O	
7.72	7.92	COc1cc(CCc2cc(O)c(=O)[nH]n2)cc(OC)c1	
		Oc1cccnc1O	pIC50 (D-amino-acid oxidase [3]): 5.94
		O=C(O)c1cc2sccc2[nH]1	pIC50 (D-amino-acid oxidase [2]): 6.83; Papp at 2 h [1]: 0.8 ×10⁻⁶ cm/s; pIC50 (D-amino-acid oxidase [3]): 8.85
8.30	8.23	O=c1[nH]nc(CCc2ccc(C(F)(F)F)cc2)cc1O [LUVADAXISTAT]	
